Reference: patent US20110105493A1, “HETEROCYCLYL SUBSTITUTED ARYLINDENOPYRIMIDINES AND THEIR USE AS HIGHLY SELECTIVE ADENOSINE A2a RECEPTOR ANTAGONISTS” (priority 2009, published 2011)

What was measured:
[1] = biological target: T1, human adenosine A2A receptor (Homo sapiens, UniProt P29274); experiment: Adenosine A2A Receptor Functional Assay (A2A GAL2); format: cell-based; settings: for IC50: CHO-K1 cells overexpressing human A2A receptor, cAMP inducible beta-galactosidase reporter, 15 nM NECA agonist challenge, read-out: A2AGal2; for A1/A2A: ratio of A1Gal2 to A2AGal2 values
T1 construct: expressed in transfected cells; host or cells: CHO-K1 cells with a cAMP inducible beta-galactosidase reporter gene
T1 sequence (P29274 whole entry): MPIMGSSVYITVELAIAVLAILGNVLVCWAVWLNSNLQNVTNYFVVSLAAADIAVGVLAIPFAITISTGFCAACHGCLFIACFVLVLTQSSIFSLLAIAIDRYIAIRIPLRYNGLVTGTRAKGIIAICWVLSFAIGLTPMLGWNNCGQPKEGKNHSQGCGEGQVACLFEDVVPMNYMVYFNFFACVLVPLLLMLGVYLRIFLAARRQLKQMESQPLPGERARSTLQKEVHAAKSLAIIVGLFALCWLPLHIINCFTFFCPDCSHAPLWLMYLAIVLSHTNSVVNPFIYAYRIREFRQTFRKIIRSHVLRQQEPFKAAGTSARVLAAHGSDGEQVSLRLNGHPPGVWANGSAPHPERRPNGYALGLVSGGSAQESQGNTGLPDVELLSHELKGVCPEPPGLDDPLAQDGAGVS
Protocol: Adenosine A2A Receptor Functional Assay (A2A GAL2)
To initiate the functional assay, cryopreserved CHO—K1 cells overexpressing the human adenosine A2A receptor and containing a cAMP inducible beta-galactosidase reporter gene were thawed, centrifuged, DMSO containing media removed, and then seeded with fresh culture media into clear 384-well tissue culture treated plates (BD #353961) at a concentration of 10K cells/well. Prior to assay, these plates were cultured for two days at 37° C., 5% CO2, 90% Rh. On the day of the functional assay, culture media was removed and replaced with 45 μL assay medium (Hams/F-12 Modified (Mediatech # 10-080CV) supplemented w/0.1% BSA). Test compounds were diluted and 11 point curves created at a 1000× concentration in 100% DMSO. Immediately after addition of assay media to the cell plates, 50 nL of the appropriate test compound antagonist or agonist control curves were added to cell plates using a Cartesian Hummingbird. Compound curves were allowed to incubate at room temperature on cell plates for approximately 15 minutes before addition of a 15 nM NECA (Sigma E2387) agonist challenge (5 μL volume). A control curve of NECA, a DMSO/Media control, and a single dose of Forskolin (Sigma F3917) were also included on each plate. After additions, cell plates were allowed to incubate at 37° C., 5% CO2, 90% Rh for 5.5-6 hours. After incubation, media were removed, and cell plates were washed 1×50 μL with DPBS w/o Ca & Mg (Mediatech 21-031-CV). Into dry wells, 20 μL of 1×Reporter Lysis Buffer (Promega E3971 (diluted in dH2O from 5× stock)) was added to each well and plates frozen at −20° C. overnight. For β-galactosidase enzyme colorimetric assay, plates were thawed out at room temperature and 20 μL 2× assay buffer (Promega) was added to each well. Color was allowed to develop at 37° C., 5% CO2, 90% Rh for 1-1.5 h or until reasonable signal appeared. The colorimetric reaction was stopped with the addition of 60 μL/well 1M sodium carbonate. Plates were counted at 405 nm on a SpectraMax Microplate Reader (Molecular Devices). Data was analyzed in Microsoft Excel and IC/EC50 curves were fit using a standardized macro.

[2] = biological target: T2, human adenosine A1 receptor (Homo sapiens, UniProt P30542); experiment: Adenosine A1 Receptor Functional Assay (A1GAL2); format: cell-based; settings: CHO-K1 cells overexpressing human A1 receptor, cAMP inducible beta-galactosidase reporter, 4 nM r-PIA/1 uM Forskolin agonist challenge
T2 construct: expressed in transfected cells; host or cells: CHO-K1 cells with a cAMP inducible beta-galactosidase reporter gene
T2 sequence (P30542 1-326): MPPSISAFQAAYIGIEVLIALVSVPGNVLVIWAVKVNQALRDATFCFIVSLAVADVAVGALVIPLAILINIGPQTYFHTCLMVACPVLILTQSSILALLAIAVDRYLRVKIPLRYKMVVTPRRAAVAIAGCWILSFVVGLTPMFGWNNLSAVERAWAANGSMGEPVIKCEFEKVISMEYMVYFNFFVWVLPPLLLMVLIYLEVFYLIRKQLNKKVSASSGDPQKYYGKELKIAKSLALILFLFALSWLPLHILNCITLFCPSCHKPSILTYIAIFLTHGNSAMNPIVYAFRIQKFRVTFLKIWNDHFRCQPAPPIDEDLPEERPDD
Protocol: Adenosine A1 Receptor Functional Assay (A1GAL2)
To initiate the functional assay, cryopreserved CHO—K1 cells overexpressing the human adenosine A1 receptor and containing a cAMP inducible beta-galactosidase reporter gene were thawed, centrifuged, DMSO containing media removed, and then seeded with fresh culture media into clear 384-well tissue culture treated plates (BD #353961) at a concentration of 10K cells/well. Prior to assay, these plates were cultured for two days at 37° C., 5% CO2, 90% Rh. On the day of the functional assay, culture media was removed and replaced with 45 μL assay medium (Hams/F-12 Modified (Mediatech # 10-080CV) supplemented w/0.1% BSA). Test compounds were diluted and 11 point curves created at a 1000× concentration in 100% DMSO. Immediately after addition of assay media to the cell plates, 50 nL of the appropriate test compound antagonist or agonist control curves were added to cell plates using a Cartesian Hummingbird. Compound curves were allowed to incubate at room temperature on cell plates for approximately 15 minutes before addition of a 4 nM r-PIA (Sigma P4532)/1 uM Forskolin (Sigma F3917) agonist challenge (5 μL volume). A control curve of r-PIA in1 uM Forskolin, a DMSO/Media control, and a single dose of Forskolin were also included on each plate. After additions, cell plates were allowed to incubate at 37° C., 5% CO2, 90% Rh for 5.5-6 hours. After incubation, media was removed, and cell plates were washed 1×50 μL with DPBS w/o Ca & Mg (Mediatech 21-031-CV). Into dry wells, 20 μL of 1×Reporter Lysis Buffer (Promega E3971 (diluted in dH2O from 5× stock)) was added to each well and plates frozen at −20° C. overnight. For β-galactosidase enzyme colorimetric assay, plates were thawed out at room temperature and 20 μL 2×assay buffer (Promega) was added to each well. Color was allowed to develop at 37° C., 5% CO2, 90% Rh for 1-1.5 h or until reasonable signal appeared. The colorimetric reaction was stopped with the addition of 60 μL/well 1M sodium carbonate. Plates were counted at 405 nm on a SpectraMax Microplate Reader (Molecular Devices). Data was analyzed in Microsoft Excel and IC/EC50 curves were fit using a standardized macro.

SMILES	IC50 [1] [nM]	A1/A2A [1]	IC50 [2] [nM]
CCCN1CCN(c2cccc3c2-c2nc(N)nc(-c4ccccc4)c2C3=O)CC1 [Example 19, 2-Amino-4-phenyl-9-(4-propyl-piperazin-1-yl)-indeno[1,2-d]pyrimidin-5-one]	10.3	104.858	1080
Nc1nc(-c2ccccc2)c2c(n1)-c1c(cccc1N1CCC(O)(c3ccccc3)CC1)C2=O [Example 13, 2-Amino-9-(4-hydroxy-4-phenyl-piperidin-1-yl)-4-phenyl-indeno[1,2-d]pyrimidin-5-one]	0.67	462.687	310
C=CCN1CCN(c2cccc3c2-c2nc(N)nc(-c4ccccc4)c2C3=O)CC1 [Example 23, 9-(4-Allyl-piperazin-1-yl)-2-amino-4-phenyl-indeno[1,2-d]pyrimidin-5-one]	12.5	60.0758	748
COc1ccc(C2CCN(c3cccc4c3-c3nc(N)nc(-c5ccccc5)c3C4=O)CC2)cc1 [Example 18, 2-Amino-9-[4-(4-methoxy-phenyl)-piperidin-1-yl]-4-phenyl-indeno[1,2-d]pyrimidin-5-one]	4.5	133.333	600
N#Cc1ccc(N2CCN(c3cccc4c3-c3nc(N)nc(-c5ccccc5)c3C4=O)CC2)nc1 [Example 8, 6-[4-(2-Amino-5-oxo-4-phenyl-5H-indeno[1,2-d]pyrimidin-9-yl)-piperazin-1-yl]-nicotinonitrile]	2.7	777.778	2100
N#Cc1ccc(N2CCN(c3cccc4c3-c3nc(N)nc(-c5ccccc5)c3C4=O)CC2)cc1 [Example 3, 4-[4-(2-Amino-5-oxo-4-phenyl-5H-indeno[1,2-d]pyrimidin-9-yl)-piperazin-1-yl]-benzonitrile]	0.6	5833.33	3500
